Measurements published in PubChem BioAssay (NCI).
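Step 1: Grow cells in 96-well plates. Step 2: Expose to compound for 48 hours at 5 concentrations. Step 3: Interpolate endpoints linearly; if unreached, use highest concentration. Abbreviation: GI50, concentration required for 50% inhibition of growth. TGI: total growth inhibition.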

Experiments:
Experiment in all cases: NCI-60 cell line screen, 48 h
[1] = system: ACHN renal
[2] = system: MOLT-4 leukemia
[3] = system: NCI-H522 lung
[4] = system: SF-295 CNS
[5] = system: CCRF-CEM leukemia
[6] = system: NCI-H23 lung
[7] = system: 786-0 renal
[8] = system: MDA-N
[9] = system: T-47D breast
[10] = system: DMS 114 small cell lung
[11] = system: HOP-18 NSCLC

## O=C(Nc1ccc(I)cc1C(=O)NCCO)c1cccs1
[1]
  TGI: > 100 µM
[2]
  TGI: > 100 µM
[3]
  TGI: > 100 µM
[4]
  TGI: > 100 µM
[5]
  TGI: > 100 µM
[6]
  TGI: > 100 µM

## Cc1ccc2c(c1)nc(N)n[n+]2[O-]
[1]
  TGI: > 100 µM
[2]
  TGI: > 100 µM
[7]
  TGI: > 100 µM
[3]
  TGI: > 100 µM
[8]
  TGI: > 100 µM
[9]
  TGI: > 100 µM
[4]
  TGI: > 100 µM
[5]
  TGI: > 100 µM
[6]
  TGI: > 100 µM

## Cc1cn(C2C=CC(COP(=O)(OCC3=CC(=O)c4ccccc4C3=O)N(C)CCCCCl)O2)c(=O)[nH]c1=O (centres undefined)
[1]
  TGI: 26.4 µM
[2]
  TGI: 0.769 µM
[7]
  TGI: 25.3 µM
[3]
  TGI: 29.4 µM
[8]
  TGI: 4.22 µM
[9]
  TGI: 9.26 µM
[4]
  TGI: 11.3 µM
[5]
  TGI: 11.9 µM
[6]
  TGI: 6.49 µM

## O=[Se]([O-])c1ccccc1.O=[Se]([O-])c1ccccc1.[OH3+].[OH3+].[Pt+2]
[2]
  GI50: 3.62 µM
  TGI: > 42.4 µM
[10]
  GI50: 3.73 µM
  TGI: 20.8 µM
[3]
  GI50: 2.51 µM
  TGI: 13.4 µM
[4]
  GI50: 3.42 µM
  TGI: 16.9 µM
[5]
  GI50: 3.15 µM
  TGI: > 35.9 µM
[6]
  GI50: 7.01 µM
  TGI: 88.4 µM
[11]
  GI50: 15.1 µM
  TGI: 60.6 µM

## Nc1ccccc1Nc1ccccc1C(=O)[O-].Nc1ccccc1Nc1ccccc1C(=O)[O-].[Cu+2]
[1]
  TGI: > 100 µM
[2]
  TGI: > 100 µM
[7]
  TGI: > 100 µM
[3]
  TGI: > 100 µM
[4]
  TGI: > 100 µM
[5]
  TGI: > 100 µM
[6]
  TGI: > 100 µM

## O=C(NS(=O)(=O)Nc1ccc(Cl)cc1)OCc1ccc(Cl)cc1Cl
[1]
  TGI: > 100 µM
[2]
  TGI: > 100 µM
[7]
  TGI: > 100 µM
[8]
  TGI: 50.3 µM
[4]
  TGI: 42.7 µM
[5]
  TGI: > 100 µM
[6]
  TGI: 52.3 µM

## COc1ccc(Nc2[nH]c(C(C)=O)c(N)c2C(=S)Nc2ccccc2)cc1
[1]
  TGI: > 100 µM
[2]
  TGI: > 100 µM
[7]
  TGI: > 100 µM
[3]
  TGI: > 100 µM
[8]
  TGI: > 100 µM
[9]
  TGI: > 100 µM
[4]
  TGI: > 100 µM
[5]
  TGI: > 100 µM
[6]
  TGI: > 100 µM

## CCn1cc(C(c2ccc(Cl)cc2)n2ccnc2)c2cc(Br)ccc21 (centres undefined)
[1]
  TGI: 25.9 µM
[2]
  TGI: > 100 µM
[8]
  TGI: 66.2 µM
[4]
  TGI: 23.8 µM
[6]
  TGI: 31.1 µM

## COc1cc2oc(-c3ccc(O)cc3)c(OC3OC(C)C(O)C(O)C3O)c(=O)c2c(O)c1OC (centres undefined)
[1]
  TGI: > 100 µM
[2]
  TGI: > 100 µM
[7]
  TGI: > 100 µM
[3]
  TGI: > 100 µM
[8]
  TGI: > 100 µM
[9]
  TGI: > 100 µM
[4]
  TGI: > 100 µM
[5]
  TGI: > 100 µM
[6]
  TGI: > 100 µM

## Nc1n[nH]c(=O)[nH]1
[2]
  TGI: > 100 µM
[10]
  TGI: > 100 µM
[3]
  TGI: > 100 µM
[4]
  TGI: > 100 µM
[5]
  TGI: > 100 µM
[6]
  TGI: > 100 µM

## N#Cc1c(NC(=S)NC(=O)c2ccccc2)nc2c(c1-c1ccccc1)CCC2
[1]
  TGI: > 100 µM
[2]
  TGI: > 100 µM
[8]
  TGI: > 100 µM
[9]
  TGI: > 100 µM
[4]
  TGI: > 100 µM
[5]
  TGI: > 100 µM
[6]
  TGI: > 100 µM

## C=CC(=O)Nc1cccc(-c2nc(SC)nc(Nc3ccccc3OC)c2C#N)c1
[1]
  GI50: 1.7 µM
  TGI: 3.32 µM
[2]
  GI50: 2.62 µM
  TGI: 83.5 µM
[3]
  GI50: 2.04 µM
  TGI: 6.53 µM
[9]
  GI50: 1.59 µM
  TGI: 4.34 µM
[4]
  GI50: 1.95 µM
  TGI: 4.46 µM
[5]
  GI50: 3.07 µM
  TGI: > 100 µM
[6]
  GI50: 2.15 µM
  TGI: 5.99 µM

## OCC1CCCC(n2cnc3c(=S)nc[nH]c32)O1 (centres undefined)
[1]
  TGI: > 100 µM
[7]
  TGI: > 100 µM
[3]
  TGI: > 100 µM
[8]
  TGI: > 100 µM
[9]
  TGI: > 100 µM
[4]
  TGI: > 100 µM
[6]
  TGI: > 100 µM

## O=C1CC(=O)N(c2ccccc2)N1/C(=C/c1ccccc1)c1ccccc1
[1]
  TGI: 89.5 µM
[2]
  TGI: 6.54 µM
[8]
  TGI: 34.3 µM
[9]
  TGI: 67.8 µM
[4]
  TGI: 35.6 µM
[5]
  TGI: 3.57 µM
[6]
  TGI: 65.4 µM

## Cc1[nH]c(/C=C2\C(=O)Nc3ccc(S(=O)(=O)Cc4c(Cl)cccc4Cl)cc32)c(C)c1C(=O)N1CCC[C@@H]1CN1CCCC1
[1]
  GI50: 1.63 µM
  TGI: 3.07 µM
[3]
  GI50: 19.7 µM
  TGI: 47.7 µM
[9]
  GI50: 12.2 µM
  TGI: 35.9 µM
[4]
  GI50: 1.19 µM
  TGI: 2.57 µM
[6]
  GI50: 4.38 µM
  TGI: 12.3 µM

## O=C(O)c1ccc(NC(c2ccccc2)c2ccc3cccnc3c2O)cc1 (centres undefined)
[1]
  TGI: > 100 µM
[2]
  TGI: > 42.6 µM
[7]
  TGI: > 76.6 µM
[3]
  TGI: 55.8 µM
[8]
  TGI: > 100 µM
[9]
  TGI: 50.1 µM
[4]
  TGI: > 100 µM
[5]
  TGI: 6.05 µM
[6]
  TGI: > 100 µM

## CCC(=O)C(c1ccccc1)c1ccccn1 (centres undefined)
[1]
  TGI: > 100 µM
[7]
  TGI: > 100 µM
[3]
  TGI: > 100 µM
[8]
  TGI: > 100 µM
[9]
  TGI: > 100 µM
[4]
  TGI: > 100 µM
[5]
  TGI: > 100 µM
[6]
  TGI: > 100 µM

## CC(C)CC(N)C(=O)OCN1C(=O)C2C3C=CC(C2C1=O)C1C2C(=O)N(COC(=O)C(N)CC(C)C)C(=O)C2C31 (centres undefined)
[1]
  TGI: > 100 µM
[2]
  TGI: > 100 µM
[10]
  TGI: > 100 µM
[7]
  TGI: > 100 µM
[3]
  TGI: > 100 µM
[4]
  TGI: > 100 µM
[5]
  TGI: > 100 µM
[6]
  TGI: > 100 µM
[11]
  TGI: > 100 µM

## COC1OC(=O)[C@H]2O[N+]([O-])=C(C)[C@@H]12 (some centres undefined)
[2]
  TGI: > 100 µM
[10]
  TGI: > 100 µM
[3]
  TGI: > 100 µM
[4]
  TGI: > 100 µM
[5]
  TGI: > 100 µM
[6]
  TGI: > 100 µM
[11]
  TGI: > 100 µM
